Assay results reported in patent publication US20230285516A1 (priority 2020, published 2023).

Assays:
Treg (CD4+/FOXP3+) cells = assay: FACS of spleen Foxp3+ regulatory T cells in CIA models; format: in vivo, mice
Method: Early Arthritis Model. Fifty mice with the same characteristics were immunized at the base of the tail with 100 μg of chicken type II collagen emulsified in complete Freund's adjuvant. The boost was applied on day 21 at the base of the tail with 100 μg of type II collagen emulsified with Freund's incomplete adjuvant. On the same boosting day, the treatments (a-d) were applied every week for six weeks. Three animals were euthanized in the sixth week and three in the thirteenth week. The spleen, lymph nodes, joint tissue, liver, lungs, kidneys and heart were obtained in order to assess the inflammatory infiltrate, the predominant cell populations and the expression of pro- and anti-inflammatory cytokines.
Established Arthritis Model. Arthritis was induced as in the previous model in 50 mice and the treatments were applied intramuscularly, after 2 weeks of the boost, every week for 6 weeks. Three animals were euthanized in the eighth week and three in the fifteenth week. The spleen, lymph nodes, joint tissue, liver, lungs, kidneys and heart were obtained in order to assess the inflammatory infiltrate, the predominant cell populations and the expression of pro- and anti-inflammatory cytokines.
Cytometric evaluation. Using FACS, the percentage of populations of Th1 ([…]), Th2 (CD4^+/IL-4^+), Treg (CD4^+/FOXP3^+) Th17 (CD4^+/IL-17^+) and dendritic (CD4−/CD11c^+) cells in spleen cells.
FIG. 10. Effect of type I polymerized collagen in the early (preventive) and long-standing (late or palliative) arthritis model on the percentage of spleen CD4+ T cell subpopulations. (A) Spleen cells obtained ex vivo in the early arthritis model during the first sacrifice. (B) Spleen cells obtained ex vivo in the early arthritis model during the second sacrifice. (C) Spleen cells obtained ex vivo in the long-standing arthritis model during the first sacrifice. […] The intracellular production of IL-17A, IL-4, IFN-γ and Foxp3 by CD4+ T cells was detected by flow cytometry. The results are representative of 6 mice analyzed in each group. […]

TNF-α [1] = assay: TNF-α tissue expression in cartilage and synovium co-cultures (histochemistry); format: cell-based, human; details: RA or OA co-cultures, 1% type I polymerized collagen, 7 days
Method: (§1) Cartilage and synovium co-cultures were performed from 9 patients with RA and 8 patients with OA who underwent hip or knee replacement (Table 1). Joint tissue was cultured with (a) RPMI (control), (b) 1% type I polymerized collagen, for 7 days. The supernatants and tissues of days 1 and 7 were […] collected. In the culture supernatants the concentration of IL-1β, IL-8, IL-10, IL-12, TNF-α and IFN-γ was quantified by ELISA and the results were normalized with total protein concentration. The expression of IL-1β and TNF-α was evaluated using histochemistry.
FIG. 2. Effect of type I polymerized collagen on TNF-α expression. (A) Cells immunoreactive to TNF-α in the synovial tissue of the co-cultures. (B) Immunoreactive TNF-α+ cells in cartilage from co-cultures. Rheumatoid arthritis (RA): left panel. Osteoarthritis (OA): right panel. Basal: tissue in basal conditions. […] Each culture was performed in triplicate for each condition, of which at least two sections of each of the tissues were analyzed. The results are expressed as the mean±standard error (SEM) of the percentage of immunoreactive cells in 9 co-cultures of patients with RA and 8 with OA. *p≤0.002.

TNF-α [2] = assay: TNF-α gene expression in co-cultured tissues (RT-PCR); format: cell-based, human; details: vs control
Excerpt: FIG. 7. Effect of type I polymerized collagen on the gene expression of pro- and anti-inflammatory cytokines and factors in the tissues of cartilage and synovial tissue co-cultures of patients with rheumatoid arthritis (RA). (A) Quantification of TNF-α, IL-6 and IL-10 gene expression and (B) Quantification of IL-23 and Foxp3 gene expression by RT-PCR in synovial membrane tissues and cartilage co-cultured for 7 days. The bars show the mean±SD of the transcript levels of the samples normalized through the expression of the housekeeping gene GADPH determined by 2ΔΔCt. The data represent the mean±SD of 9 cartilage and synovial co-cultures from RA patients. Each culture was performed in triplicate for each condition. Basal: tissue in basal conditions.
FIG. 8. Effect of type I polymerized collagen on the gene expression of pro- and anti-inflammatory cytokines and factors in the tissues of cartilage and synovial co-cultures of patients with Osteoarthritis (OA). (A) Quantification of IL-1β, INF-α, IL-6 and IL-10 gene expression, (B) IL-23 and Foxp3 by RT-PCR in co-cultured cartilage and synovial membrane tissues for 7 days. The bars show the mean±SD of the transcript levels of the samples normalized through the expression of the housekeeping gene GADPH determined by 2ΔΔCt. The data represent the mean±SD of 8 co-cultures from patients with OA. […]

IL-10 = IL-10 in co-culture supernatants (ELISA); format: cell-based, human; details: RA or OA co-cultures, day 7 vs. day 1 of culture
Method: as §1
(§2) FIG. 6. Effect of type I polymerized collagen on IL-10 expression in supernatants of cartilage and synovial tissue co-cultures from patients with rheumatoid arthritis (RA) or osteoarthritis (OA). The data represent the mean±SD of 9 co-cultures of cartilage and synovium from patients with RA and of 8 co-cultures of patients with OA. Each culture was performed in triplicate for each condition. The results were normalized with the total protein concentration of the supernatant, determined by the Folin-Lowry micromethod. AR: left panel. OA: panel on the right. Basal: tissue in basal conditions.

IL-8 = IL-8 in co-culture supernatants (ELISA); format: cell-based, human; details: tissue co-cultures from RA patients
Method: as §1
as §2, with “5.” for “6.”, “IL-8” for “IL-10”, “Folin-Löwry” for “Folin-Lowry”

dormant cells = details: Jou I-M 2005; Furuzawa-Carballeda 2003; cited from earlier work

## collagen-polyvinylpyrrolidone [type I polymerized collagen]
Treg (CD4+/FOXP3+) cells; CIA model, fold
  positive regulation of Tregs cells: 5.0-6.0 ×
Treg (CD4+/FOXP3+) cells; early and long-standing arthritis, first and second sacrifice, vs placebo
  Foxp3+ regulatory T cells: increase
TNF-α [1]
  tissue expression of TNF-α vs. controls in synovial tissue: decreased
TNF-α [2]; co-cultures from patients with OA
  gene expression of TNF-α: negative regulation
TNF-α [2]; co-cultures from patients with RA
  transcription of TNF-α gene: negatively regulated
IL-10
  increase of IL-10 concentration in the supernatants: ≥ 10 times
IL-8
  concentration of IL-8 in the supernatants of the co-cultures: greatest decrease
Dormant cells
  response of dormant cells: does not induce any response
